Target: ER (Homo sapiens (Human), UniProt P03372)
Experiment: Western blot analysis (Compounds B1-B278)
Format: cell-based
Settings: ER degradation by traditional Western blot; DC50 classes
Outline: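 Compound-treated cells were lysed in RIPA buffer (Tris.HCl pH 7.6, 1% NP-40, deoxycholate, 0.1% SDS) with protease inhibitors; equal protein was resolved on 10% SDS-PAGE, transferred to PVDF and immunoblotted. Band intensities were quantified and normalized to GAPDH.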

Sequence of ER (P03372 whole entry): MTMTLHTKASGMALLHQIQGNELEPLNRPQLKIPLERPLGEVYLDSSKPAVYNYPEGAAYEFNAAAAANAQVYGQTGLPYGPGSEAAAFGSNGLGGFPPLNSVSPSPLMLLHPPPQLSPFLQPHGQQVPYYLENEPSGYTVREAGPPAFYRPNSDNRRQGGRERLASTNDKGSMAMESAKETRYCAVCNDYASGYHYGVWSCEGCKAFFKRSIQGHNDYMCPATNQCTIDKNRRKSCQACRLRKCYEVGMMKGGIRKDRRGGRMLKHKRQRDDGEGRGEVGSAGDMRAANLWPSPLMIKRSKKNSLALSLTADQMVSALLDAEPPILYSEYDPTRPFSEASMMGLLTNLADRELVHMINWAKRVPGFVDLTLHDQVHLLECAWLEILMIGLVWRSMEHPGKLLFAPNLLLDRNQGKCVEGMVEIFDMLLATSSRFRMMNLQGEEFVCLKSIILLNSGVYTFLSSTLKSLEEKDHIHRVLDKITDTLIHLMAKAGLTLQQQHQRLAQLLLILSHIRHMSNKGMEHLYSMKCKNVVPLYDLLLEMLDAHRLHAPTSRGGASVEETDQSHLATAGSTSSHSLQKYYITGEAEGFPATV

SMILES	Traditional Western Degradation Potency
C[C@@H]1Cc2c([nH]c3ccccc23)[C@@H](c2c(F)cc(N3CCC4(CCN(C(=O)CN5Cc6cc7c(cc6C5)C(=O)N(C5CCC(=O)NC5=O)C7=O)CC4)C3)cc2F)N1CC(F)F (stereo partly drawn) [Compound B72, 6-(2-(2-(4-((1R,3R)-2-(2,2-difluoroethyl)-3-methyl-2,3,4,9-tetrahydro-1H-pyrido[3,4-b]indol-1-yl)-3,5-difluorophenyl)-2,8-diazaspiro[4.5]decan-8-yl)-2-oxoethyl)-2-(2,6-dioxopiperidin-3-yl)-6,7-dihydropyrrolo[3,4-f]isoindole-1,3(2H,5H)-dione]	A (“A”: <10 nM)
C[C@@H]1Cc2c([nH]c3ccccc23)[C@@H](c2c(F)cc(N3CC(F)(C(=O)N4CCC(F)(CN5Cc6cc7c(cc6C5)C(=O)N(C5CCC(=O)NC5=O)C7=O)CC4)C3)cc2F)N1CC(F)F (stereo partly drawn) [Compound B75, 6-((1-(1-(4-((1R,3R)-2-(2,2-difluoroethyl)-3-methyl-2,3,4,9-tetrahydro-1H-pyrido[3,4-b]indol-1-yl)-3,5-difluorophenyl)-3-fluoroazetidine-3-carbonyl)-4-fluoropiperidin-4-yl)methyl)-2-(2,6-dioxopiperidin-3-yl)-6,7-dihydropyrrolo[3,4-f]isoindole-1,3(2H,5H)-dione]	C (“C”: >100 nM)
C[C@@H]1Cc2c([nH]c3ccccc23)[C@@H](c2c(F)cc(C3CCC(C(=O)N4CCC(N5Cc6cc7c(cc6C5)C(=O)N(C5CCC(=O)NC5=O)C7=O)CC4)CC3)cc2F)N1CC(F)F (stereo partly drawn) [Compound B77, 6-(1-(4-(4-((1R,3R)-2-(2,2-difluoroethyl)-3-methyl-2,3,4,9-tetrahydro-1H-pyrido[3,4-b]indol-1-yl)-3,5-difluorophenyl)cyclohexane-1-carbonyl)piperidin-4-yl)-2-(2,6-dioxopiperidin-3-yl)-6,7-dihydropyrrolo[3,4-f]isoindole-1,3(2H,5H)-dione]	A (“A”: <10 nM)
C[C@@H]1Cc2c([nH]c3ccccc23)[C@@H](c2c(F)cc(C3CCC(C(=O)N4CCC(F)(CN5Cc6cc7c(cc6C5)C(=O)N(C5CCC(=O)NC5=O)C7=O)CC4)CC3)cc2F)N1CC(F)F (stereo partly drawn) [Compound B78, 6-((1-(4-(4-((1R,3R)-2-(2,2-difluoroethyl)-3-methyl-2,3,4,9-tetrahydro-1H-pyrido[3,4-b]indol-1-yl)-3,5-difluorophenyl)cyclohexane-1-carbonyl)-4-fluoropiperidin-4-yl)methyl)-2-(2,6-dioxopiperidin-3-yl)-6,7-dihydropyrrolo[3,4-f]isoindole-1,3(2H,5H)-dione]	B (“B”: 10-100 nM)
C[C@@H]1Cc2c([nH]c3ccccc23)[C@@H](c2c(F)cc(C3CCC(C(=O)N4CCC(CN5Cc6cc7c(cc6C5)C(=O)N(C5CCC(=O)NC5=O)C7=O)CC4)CC3)cc2F)N1CC(F)F (stereo partly drawn) [Compound B79, 6-((1-(4-(4-((1R,3R)-2-(2,2-difluoroethyl)-3-methyl-2,3,4,9-tetrahydro-1H-pyrido[3,4-b]indol-1-yl)-3,5-difluorophenyl)cyclohexane-1-carbonyl)piperidin-4-yl)methyl)-2-(2,6-dioxopiperidin-3-yl)-6,7-dihydropyrrolo[3,4-f]isoindole-1,3(2H,5H)-dione]	C (“C”: >100 nM)
C[C@@H]1Cc2c([nH]c3ccccc23)[C@@H](c2c(F)cc(C3CCC(C(=O)N4CC(N5Cc6cc7c(cc6C5)C(=O)N(C5CCC(=O)NC5=O)C7=O)C4)CC3)cc2F)N1CC(F)F (stereo partly drawn) [Compound B80, 6-(1-(4-(4-((1R,3R)-2-(2,2-difluoroethyl)-3-methyl-2,3,4,9-tetrahydro-1H-pyrido[3,4-b]indol-1-yl)-3,5-difluorophenyl)cyclohexane-1-carbonyl)azetidin-3-yl)-2-(2,6-dioxopiperidin-3-yl)-6,7-dihydropyrrolo[3,4-f]isoindole-1,3(2H,5H)-dione]	C (“C”: >100 nM)
C[C@@H]1Cc2c([nH]c3ccccc23)[C@@H](c2c(F)cc(C3CCC(C(=O)N4CC(CN5Cc6cc7c(cc6C5)C(=O)N(C5CCC(=O)NC5=O)C7=O)C4)CC3)cc2F)N1CC(F)F (stereo partly drawn) [Compound B81, 6-((1-(4-(4-((1R,3R)-2-(2,2-difluoroethyl)-3-methyl-2,3,4,9-tetrahydro-1H-pyrido[3,4-b]indol-1-yl)-3,5-difluorophenyl)cyclohexane-1-carbonyl)azetidin-3-yl)methyl)-2-(2,6-dioxopiperidin-3-yl)-6,7-dihydropyrrolo[3,4-f]isoindole-1,3(2H,5H)-dione]	A (“A”: <10 nM)
C[C@@H]1Cc2c([nH]c3ccccc23)[C@@H](c2c(F)cc(C3CCC(CN4CCC(N5Cc6cc7c(cc6C5)C(=O)N(C5CCC(=O)NC5=O)C7=O)CC4)CC3)cc2F)N1CC(F)F (stereo partly drawn) [Compound B82, 6-(1-((4-(4-((1R,3R)-2-(2,2-difluoroethyl)-3-methyl-2,3,4,9-tetrahydro-1H-pyrido[3,4-b]indol-1-yl)-3,5-difluorophenyl)cyclohexyl)methyl)piperidin-4-yl)-2-(2,6-dioxopiperidin-3-yl)-6,7-dihydropyrrolo[3,4-f]isoindole-1,3(2H,5H)-dione]	C (“C”: >100 nM)
C[C@@H]1Cc2c([nH]c3ccccc23)[C@@H](c2c(F)cc(C3CCC(CN4CC(CN5Cc6cc7c(cc6C5)C(=O)N(C5CCC(=O)NC5=O)C7=O)C4)CC3)cc2F)N1CC(F)F (stereo partly drawn) [Compound B83, 6-((1-((4-(4-((1R,3R)-2-(2,2-difluoroethyl)-3-methyl-2,3,4,9-tetrahydro-1H-pyrido[3,4-b]indol-1-yl)-3,5-difluorophenyl)cyclohexyl)methyl)azetidin-3-yl)methyl)-2-(2,6-dioxopiperidin-3-yl)-6,7-dihydropyrrolo[3,4-f]isoindole-1,3(2H,5H)-dione]	C (“C”: >100 nM)
C[C@@H]1Cc2c([nH]c3ccccc23)[C@@H](c2c(F)cc(C3CCC(C(=O)N4CCC(N5Cc6cc7c(cc6C5)C(=O)N(C5CCC(=O)NC5=O)C7)CC4)CC3)cc2F)N1CC(F)F (stereo partly drawn) [Compound B84, 3-(6-(1-(4-(4-((1R,3R)-2-(2,2-difluoroethyl)-3-methyl-2,3,4,9-tetrahydro-1H-pyrido[3,4-b]indol-1-yl)-3,5-difluorophenyl)cyclohexane-1-carbonyl)piperidin-4-yl)-1-oxo-3,5,6,7-tetrahydropyrrolo[3,4-f]isoindol-2(1H)-yl)piperidine-2,6-dione]	A (“A”: <10 nM)

The next lines start with the values.

Traditional Western Degradation Potency	SMILES
B (“B”: 10-100 nM)	C[C@@H]1Cc2c([nH]c3ccccc23)[C@@H](c2c(F)cc(N3CC(CC(=O)N4CC(N5Cc6cc7c(cc6C5)C(=O)N(C5CCC(=O)NC5=O)C7)C4)C3)cc2F)N1CC(F)F (stereo partly drawn) [Compound B71, 3-(6-(1-(2-(1-(4-((1R,3R)-2-(2,2-difluoroethyl)-3-methyl-2,3,4,9-tetrahydro-1H-pyrido[3,4-b]indol-1-yl)-3,5-difluorophenyl)azetidin-3-yl)acetyl)azetidin-3-yl)-1-oxo-3,5,6,7-tetrahydropyrrolo[3,4-f]isoindol-2(1H)-yl)piperidine-2,6-dione]
C (“C”: >100 nM)	C[C@@H]1Cc2c([nH]c3ccccc23)[C@@H](c2c(F)cc(N3CCC(CN4Cc5cc6c(cc5C4)C(=O)N(C4CCC(=O)NC4=O)C6)CC3)cc2F)N1CC(F)F (stereo partly drawn) [Compound B73, 3-(6-((1-(4-((1R,3R)-2-(2,2-difluoroethyl)-3-methyl-2,3,4,9-tetrahydro-1H-pyrido[3,4-b]indol-1-yl)-3,5-difluorophenyl)piperidin-4-yl)methyl)-1-oxo-3,5,6,7-tetrahydropyrrolo[3,4-f]isoindol-2(1H)-yl)piperidine-2,6-dione]
B (“B”: 10-100 nM)	C[C@@H]1Cc2c([nH]c3ccccc23)[C@@H](c2c(F)cc(N3CC(F)(C(=O)N4CCC(CN5Cc6cc7c(cc6C5)C(=O)N(C5CCC(=O)NC5=O)C7=O)CC4)C3)cc2F)N1CC(F)F (stereo partly drawn) [Compound B74, 6-((1-(1-(4-((1R,3R)-2-(2,2-difluoroethyl)-3-methyl-2,3,4,9-tetrahydro-1H-pyrido[3,4-b]indol-1-yl)-3,5-difluorophenyl)-3-fluoroazetidine-3-carbonyl)piperidin-4-yl)methyl)-2-(2,6-dioxopiperidin-3-yl)-6,7-dihydropyrrolo[3,4-f]isoindole-1,3(2H,5H)-dione]
A (“A”: <10 nM)	C[C@@H]1Cc2c([nH]c3ccccc23)[C@@H](c2c(F)cc(N3CC(C(=O)N4CCC(CN5Cc6cc7c(cc6C5)C(=O)N(C5CCC(=O)NC5=O)C7=O)CC4)C3)cc2F)N1CC(F)F (stereo partly drawn) [Compound B76, 6-((1-(1-(4-((1R,3R)-2-(2,2-difluoroethyl)-3-methyl-2,3,4,9-tetrahydro-1H-pyrido[3,4-b]indol-1-yl)-3,5-difluorophenyl)azetidine-3-carbonyl)piperidin-4-yl)methyl)-2-(2,6-dioxopiperidin-3-yl)-6,7-dihydropyrrolo[3,4-f]isoindole-1,3(2H,5H)-dione]
B (“B”: 10-100 nM)	C[C@@H]1Cc2c([nH]c3ccccc23)[C@@H](c2c(F)cc(C3CCC(CN4CCC(N5Cc6cc7c(cc6C5)C(=O)N(C5CCC(=O)NC5=O)C7)CC4)CC3)cc2F)N1CC(F)F (stereo partly drawn) [Compound B85, 3-(6-(1-((4-(4-((1R,3R)-2-(2,2-difluoroethyl)-3-methyl-2,3,4,9-tetrahydro-1H-pyrido[3,4-b]indol-1-yl)-3,5-difluorophenyl)cyclohexyl)methyl)piperidin-4-yl)-1-oxo-3,5,6,7-tetrahydropyrrolo[3,4-f]isoindol-2(1H)-yl)piperidine-2,6-dione]

Source: US20260007681A1, “INDOLE DERIVATIVES AS ESTROGEN RECEPTOR DEGRADERS” (REGENTS OF THE UNIVERSITY OF MICHIGAN, priority 2022, published 2026)
